Patent publication US12145941B2, “Heterocyclic antiviral agents” (ENANTA PHARMACEUTICALS, INC., priority 2021, dated 2024)

The molecules below were run against SARS-CoV-2 3CL-protease (Severe acute respiratory syndrome coronavirus 2 (2019-nCoV) (SARS-CoV-2), UniProt P0DTD1) (assay: SARS-CoV-2 3C-like (3CL) protease fluorescence assay (FRET)). Settings: recombinant SARS-CoV-2 3CL-protease 10 nM, 30 min preincubation at RT, TAMRA-SITSAVLQSGFRKMK-Dabcyl-OH substrate, run in duplicate.
Assay type: biochemical
Protocol: SARS-CoV-2 3C-like (3CL) protease fluorescence assay (FRET): Recombinant SARS-CoV-2 3CL-protease was expressed and purified. TAMRA-[…]-Dabcyl-OH peptide 3CLpro substrate was synthesized. Black, low volume, round-bottom, 384 well microplates were used. In a typical assay, 0.85 μL of test compound was dissolved in DMSO then incubated with SARS-CoV-2 3CL-protease (10 nM) in 10 μL assay buffer (50 mM HEPES [pH 7.5], 1 mM DTT, 0.01% BSA, 0.01% Triton-X 100) for 30 min at RT. Next, 10 μL of 3CL-protease substrate (40 μM) in assay buffer was added and the assays were monitored continuously for 1 h in an Envision multimode plate reader operating in fluorescence kinetics mode with excitation at 540 nm and emission at 580 nm at RT. No compound (DMSO only) and no enzyme controls were routinely included in each plate. All experiments were run in duplicate. Data Analysis: SARS-CoV-2 3CL-protease enzyme activity was measured as initial velocity of the linear phase (RFU/s) and normalized to controlled samples DMSO (100% activity) and no enzyme (0% activity) to determine percent residual activity at various concentrations of test compounds (0-10 μM). Data were fitted to normalized activity (variable slope) versus concentration fit in GraphPad Prism 7 to determine IC50.

Going from `CC(C)C[C@@H](C(=O)N1C[C@]2(C[C@H]1C#N)C(=O)Nc1ccccc12)N1Cc2cc(Br)ccc2C1=O` [Compound 9, (3R,5'S)-1′-((S)-2-(5-bromo-1-oxoisoindolin-2-yl)-4-methylpentanoyl) oxospiro[indoline-3,3′-pyrrolidine]-5′-carbonitrile] to `CC(C)C[C@H](C(=O)N1C[C@]2(C[C@H]1C#N)C(=O)Nc1ccccc12)n1cccc(-c2ccc(F)cc2)c1=O` [Compound 25-b], the IC50 rises from less than 100 nM to greater than 1000 nM.

Same assay, conditions: recombinant SARS-CoV-2 3CL-protease 10 nM, 30 min preincubation at RT, TAMRA-[…]-Dabcyl-OH substrate, run in duplicate

First: CC(C)C[C@@H](C(=O)N1C[C@]2(C[C@H]1C#N)C(=O)Nc1ccccc12)N1CCc2cccc(F)c2C1=O [Compound 1, (3R,5'S)-1′-((S)-2-(8-fluoro-1-oxo-3,4-dihydroisoquinolin-2(1H)-yl)-4-methylpentanoyl)-2-oxospiro[indoline-3,3′-pyrrolidine]-5′-carbonitrile]
Second: CC(C)C[C@@H](C(=O)N1C[C@]2(C[C@H]1C#N)C(=O)Nc1ccccc12)N1CCc2c(F)cccc2C1=O [Compound 3]
The IC50 of the first is higher: 100 to 1000 nM for the first, less than 100 nM for the second. The second is the more potent here.

`CC(C)C[C@@H](C(=O)N1C[C@]2(C[C@H]1C#N)C(=O)Nc1ccccc12)N1CCc2ccc(F)cc2C1=O` [Compound 2] and `CC(C)C[C@@H](C(=O)N1C[C@]2(C[C@H]1C#N)C(=O)Nc1ccccc12)N1CCc2cc(F)ccc2C1=O` [Compound 4] cannot be ordered by IC50: less than 100 nM for the first, less than 100 nM for the second.

Compared with `CC(C)(C)C[C@@H](C(=O)N1C[C@]2(C[C@H]1C#N)C(=O)Nc1ccccc12)N1CCc2c(F)cccc2C1=O` [Compound 5], `CC(C)(C)C[C@@H](C(=O)N1C[C@]2(C[C@H]1C#N)C(=O)Nc1ccccc12)N1CCc2cccc(F)c2C1=O` [Compound 8] is higher in IC50: less than 100 nM for the first, 100 to 1000 nM for the second. The first is the more potent here.

`CC(C)(C)C[C@@H](C(=O)N1C[C@]2(C[C@H]1C#N)C(=O)Nc1ccccc12)N1CCc2cc(F)ccc2C1=O` [Compound 6] and `CC(C)(C)C[C@@H](C(=O)N1C[C@]2(C[C@H]1C#N)C(=O)Nc1ccccc12)N1CCc2ccc(F)cc2C1=O` [Compound 7] cannot be ordered by IC50: less than 100 nM for the first, less than 100 nM for the second.

`CC(C)C[C@@H](C(=O)N1C[C@]2(C[C@H]1C#N)C(=O)Nc1ccccc12)N1Cc2c(cccc2C(F)(F)F)C1=O` [Compound 10] and `CC(C)(C)C[C@@H](C(=O)N1C[C@]2(C[C@H]1C#N)C(=O)Nc1ccccc12)N1Cc2c(cccc2C(F)(F)F)C1=O` [Compound 11] cannot be ordered by IC50: less than 100 nM for the first, less than 100 nM for the second.

`CC(C)(C)C[C@@H](C(=O)N1C[C@]2(C[C@H]1C#N)C(=O)Nc1ccccc12)N1Cc2cc(Cl)ccc2C1=O` [Compound 12] and `CC(C)(F)C[C@@H](C(=O)N1C[C@]2(C[C@H]1C#N)C(=O)Nc1ccccc12)N1Cc2cc(Cl)ccc2C1=O` [Compound 13] cannot be ordered by IC50: less than 100 nM for the first, less than 100 nM for the second.

Compared with `CC(C)(F)C[C@@H](C(=O)N1C[C@]2(C[C@H]1C#N)C(=O)Nc1ccccc12)N1Cc2c(Cl)cccc2C1=O` [Compound 14], `CC(C)(F)C[C@@H](C(=O)N1C[C@]2(C[C@H]1C#N)C(=O)Nc1ccccc12)N1Cc2cccc(Cl)c2C1=O` [Compound 16] is higher in IC50: less than 100 nM for the first, 100 to 1000 nM for the second. The first is the more potent here.

`CC(C)(F)C[C@@H](C(=O)N1C[C@]2(C[C@H]1C#N)C(=O)Nc1ccccc12)N1Cc2ccc(Cl)cc2C1=O` [Compound 15] and `CC(C)(F)C[C@@H](C(=O)N1C[C@]2(C[C@H]1C#N)C(=O)Nc1ccccc12)N1Cc2ncc(Cl)cc2C1=O` [Compound 21] cannot be ordered by IC50: less than 100 nM for the first, less than 100 nM for the second.

`COc1ccc2c(c1)CN([C@@H](CC(C)(C)C)C(=O)N1C[C@]3(C[C@H]1C#N)C(=O)Nc1ccccc13)C2=O` [Compound 17] and `COc1ccc2c(c1)C(=O)N([C@@H](CC(C)(C)C)C(=O)N1C[C@]3(C[C@H]1C#N)C(=O)Nc1ccccc13)C2` [Compound 18] cannot be ordered by IC50: less than 100 nM for the first, less than 100 nM for the second.

Compared with `COc1cccc2c1CN([C@@H](CC(C)(C)C)C(=O)N1C[C@]3(C[C@H]1C#N)C(=O)Nc1ccccc13)C2=O` [Compound 19], `CC(C)(C)C[C@@H](C(=O)N1C[C@]2(C[C@H]1C#N)C(=O)Nc1ccccc12)N1Cc2cccnc2C1=O` [Compound 20] is higher in IC50: less than 100 nM for the first, 100 to 1000 nM for the second.

`CC(C)C[C@@H](C(=O)N1C[C@]2(C[C@H]1C#N)C(=O)Nc1ccccc12)N1C(=O)c2ccccc2[C@H]1C` [Compound 22-a, (3R,5'S)-1′-((S)-4-methyl-2-((R)-1-methyl-3-oxoisoindolin-2-yl)pentanoyl)-2-oxospiro[indoline-3,3′-pyrrolidine]-5′-carbonitrile] and `CC(C)C[C@@H](C(=O)N1C[C@]2(C[C@H]1C#N)C(=O)Nc1ccccc12)N1C(=O)c2ccccc2[C@@H]1C` [Compound 22-b, (3R,5'S)-1′-((S)-4-methyl-2-((S)-1-methyl-3-oxoisoindolin-2-yl)pentanoyl)-2-oxospiro[indoline-3,3′-pyrrolidine]-5′-carbonitrile] cannot be ordered by IC50: less than 100 nM for the first, less than 100 nM for the second.

First: C=C1c2ccccc2C(=O)N1[C@@H](CC(C)C)C(=O)N1C[C@]2(C[C@H]1C#N)C(=O)Nc1ccccc12 [Compound 22-c, (3R,5'S)-1′-((S)-4-methyl-2-(1-methylene-3-oxoisoindolin-2-yl)pentanoyl)-2-oxospiro[indoline-3,3′-pyrrolidine]-5′-carbonitrile]
Second: CC(C)C[C@@H](C(=O)N1C[C@]2(C[C@H]1C#N)C(=O)Nc1ccccc12)N1C(=O)c2ccc(F)cc2C1(C)C [Compound 24]
The IC50 of the first is lower: less than 100 nM for the first, greater than 1000 nM for the second.

`CC(C)(C)C[C@@H](C(=O)N1C[C@]2(C[C@H]1C#N)C(=O)Nc1ccccc12)N1C(=O)c2ccc(F)cc2C1(C)C` [Compound 23, (3R,5'S)-1′-((S)-2-(6-fluoro-1,1-dimethyl-3-oxoisoindolin-2-yl)-4,4-dimethylpentanoyl)-2-oxospiro[indoline-3,3′-pyrrolidine]-5′-carbonitrile] and `CC(C)C[C@@H](C(=O)N1C[C@]2(C[C@H]1C#N)C(=O)Nc1ccccc12)n1cccc(-c2ccncc2)c1=O` [Compound 26-a] fall in the same range of IC50: 100 to 1000 nM for the first, 100 to 1000 nM for the second.

`CC(C)C[C@H](C(=O)N1C[C@]2(C[C@H]1C#N)C(=O)Nc1ccccc12)n1cccc(-c2ccncc2)c1=O` [Compound 26-b] gave an IC50 greater than 1000 nM.
